For one data set, the system named is Candida sp. The data set is described as follows: Antifungal activities (in vitro), MIC on Sabouraud's agar medium. The format is cell-based. The settings on record: 48 h, 37° C., growth evaluated two days after. The procedure: (§1) A plate of a series of diluted specimen was prepared under steriled conditions using Sabouraud's agar medium (glucose 2%, peptone 1%, agar 1.5%), to which 1 μl of each of the test fungus solutions was inoculated by using a quantitative platinum loop.

The next data set has as its system Trichophyton sp. Described as above. The format is cell-based. The settings on record: 168 h, 27° C., growth evaluated seven days after. The procedure: as §1
For another data set, the system named is C. albicans (TIMM 0144). The data set is described as follows: Direct cell-membrane damaging (potassium ion leakage). It is filed as cell-based. The settings on record: test compound 40 μg/ml, 15 minutes, atomic absorption spectrometry. The procedure:
Direct cell-membrane damaging, which is one of the characteristic actions of azole antifungal drugs, was evaluated.
As a test strain, C. albicans (TIMM 0144) was used. Fresh cultures of C. albicans (TIMM 0144) were washed to make a deionized aqueous solution containing the same at a concentration of 1×10^8 /ml. In the presence of a test compound at a concentration of 40 μg/ml, potassium ion leakage concentration was measured 15 minutes after by way of atomic absorption spectrometry to evaluate the direct cell-membrane damaging.

In data set [1] the test system is T. mentagrophytes (TIMM 1189). The data set can be described thus: Antifungal activities (in vivo), guinea pig skin infection, retro-culture. Set-up: species or system Hartley white female guinea pigs. The settings on record: guinea pigs, 1% test compound in white petrolatum applied once a day for 6 days from fifth day of inoculation. An excerpt:
Hartley white female guinea pigs were used in this test. The back hair were depilated to form a round area having a diameter of 2 cm. 1×10^8microconidia of T. mentagrophytes (TIMM 1189) were inoculated therein for infection. From the fifth day of the inoculation, a composition containing 1% test compound (base: white petrolatum) was applied once a day for 6 consecutive days. Thereafter, the animals were left for 1 day, and slaughtered while removing the blood. The suffered skin was taken, cut and subjected to the retro-culture. The negative ratio of the strain was measured.

The next data set in a line: Acute toxicity. The following applies: mouse, in vivo, po; dosed orally on mice.

SMILES strings stand for the structures. In brackets after ≈: the same amount, converted by molar mass.

`CC(C)=CCC/C(C)=C/CO/N=C(\Cn1ccnc1)c1ccc(Cl)cc1Cl` [Compound 11, (Z)-1-(2,4-dichlorophenyl)-2-(1H-imidazole-1-yl)-O-((E)-3,7-dimethylocta-2,6-dienyl) ethanonoxime]: the results for the MIC against Candida sp. and in the data set on Trichophyton sp. were 40 µg/mL (≈ 98.4 µM) and 5 to 20 µg/mL (≈ 12.3 to 49.2 µM), respectively.

Take `CC(C)=CCC/C(C)=C\COC(Cn1ccnc1)c1ccc(Cl)cc1Cl` (centres unmarked) [Compound 6, 1-[2-(2,4-dichlorophenyl)-2-((Z)-3,7-dimethylocta-2,6-dienyloxy)ethyl]-1H-imidazole]: the MIC in the data set with Candida sp. lay within 20 to 40 µg/mL (≈ 50.8 to 102 µM); with Trichophyton sp., 5 to 10 µg/mL (≈ 12.7 to 25.4 µM). In the data set with C. albicans (TIMM 0144), the “Potassium ion leakage rate (%)” value is 74%. Besides, the “Negative ratio (%)” value in data set [1] was determined as 89%.

Consider `CC(C)=CCC/C(C)=C/CSC(Cn1ccnc1)c1ccc(Cl)cc1Cl` (centres unmarked) [Compound 10, 1-[2-(2,4-dichlorophenyl)-2-((E)-3,7-dimethylocta-2,6-dienylthio)ethyl]-1H-imidazole], for which the minimal inhibitory concentration (MIC) was over 80 µg/mL against Candida sp. and 20 µg/mL (≈ 48.8 µM) with Trichophyton sp.. Moreover, in the data set with C. albicans (TIMM 0144), the “Potassium ion leakage rate (%)” value worked out at 47%. For the same compound, the “Negative ratio (%)” value in data set [1] is reported as 37%.

Take `CC(C)=CCC/C(C)=C/COC(Cn1ccnc1)c1ccc(Cl)cc1Cl` (centres unmarked) [Compound 1, 1-[2-(2,4-dichlorophenyl)-2-((E)-3,7-dimethylocta-2,6-dienyloxy)ethyl]-1H-imidazole]: the MIC in the data set with Candida sp. was 40 µg/mL (≈ 102 µM); against Trichophyton sp. it was 5 to 10 µg/mL (≈ 12.7 to 25.4 µM). The “Potassium ion leakage rate (%)” value in the data set with C. albicans (TIMM 0144) was determined as 81%. In addition, the median lethal dose (LD50) in the data set “Acute toxicity” is at least 1000 mg/kg. In addition, the “Negative ratio (%)” value in data set [1] worked out at 95%.

`Clc1ccc(COC(Cn2ccnc2)c2ccc(Cl)cc2Cl)c(Cl)c1` (centres unmarked) [Miconazole, miconazole, reference compound]: the “Negative ratio (%)” value in data set [1] is recorded as 27%.

Take `CC(C)=CCC/C(C)=C/COC(Cn1ccnc1)c1ccccc1[N+](=O)[O-]` (centres unmarked) [Compound 3, 1-[2-((E)-3,7-dimethylocta-2,6-dienyloxy)-2-(2-nitrophenyl)ethyl]-1H-imadazole]: the MIC was in the range of 20 to 40 µg/mL (≈ 54.1 to 108 µM) against Candida sp. and 0.16 to 5 µg/mL (≈ 0.433 to 13.5 µM) against Trichophyton sp..

For `Clc1ccccc1C(c1ccccc1)(c1ccccc1)n1ccnc1` [Clotrimazole, clotrimazole, reference compound], in data set [1], the “Negative ratio (%)” value is 24%.

On to `CC(C)=CCC/C(C)=C/CN(C)C(Cn1ccnc1)c1ccc(Cl)cc1Cl` (centres unmarked) [Compound 9, 1-[2-(2,4-dichlorophenyl)-2-{N-((E)-3,7-dimethylocta-2,6-dienyl)-N-methylamino}ethyl]-1H-imidazole], for which the values for the MIC against Candida sp. and against Trichophyton sp. were 40 µg/mL (≈ 98.4 µM) and 10 to 20 µg/mL (≈ 24.6 to 49.2 µM), respectively. Also, in data set [1], the “Negative ratio (%)” value is recorded as 34%.

In the case of `CC(C)=CCC/C(C)=C/COC(Cn1ccnc1)c1ccccc1` (centres unmarked) [Compound 5, 1-[2-((E)-3,7-dimethylocta-2,6-dienyloxy)-2-phenylethyl]-1H-imidazole], the MIC amounted to 20 µg/mL (≈ 61.6 µM) against Candida sp. and 5 µg/mL (≈ 15.4 µM) against Trichophyton sp..

On to `CC(C)=CCC/C(C)=C/COC(Cn1ccnc1)c1ccccc1C(F)(F)F` (centres unmarked) [Compound 4, 1-[2-((E)-3,7-dimethylocta-2,6-dienyloxy)-2-(2-trifluoromethylphenyl)ethyl]-1H-imidazole], for which the figures for the MIC in the data set with Candida sp. and against Trichophyton sp. were 20 µg/mL (≈ 51 µM) and 1.25 to 20 µg/mL (≈ 3.18 to 51 µM), respectively.

Regarding `CC(C)=CCC/C(C)=C/CC/C(C)=C/COC(Cn1ccnc1)c1ccc(Cl)cc1Cl` (centres unmarked) [Compound 2, 1-[2-(2,4-dichlorophenyl)-2-((E,E)-3,7,11-trimethyldodeca-2,6,10-trienyloxy)ethyl]-1H-imidazole], the MIC against Candida sp. is over 80 µg/mL; against Trichophyton sp. it was 40 to 80 µg/mL (≈ 86.7 to 173 µM). In addition, the “Potassium ion leakage rate (%)” value in the data set with C. albicans (TIMM 0144) was found to be 55%.

With `CC(C)=CCC/C(C)=C/CNC(Cn1ccnc1)c1ccc(Cl)cc1Cl` (centres unmarked) [Compound 8, 1-[2-(2,4-dichlorophenyl)-2-((E)-3,7-dimethylocta-2,6-dienylamino)ethyl]-1H-imidazole], the minimum inhibitory concentration (MIC) is 40 µg/mL (≈ 102 µM) in the data set with Candida sp. and 10 to 20 µg/mL (≈ 25.5 to 51 µM) with Trichophyton sp.. Also, the “Potassium ion leakage rate (%)” value in the data set with C. albicans (TIMM 0144) is listed as 65%. The “Negative ratio (%)” value in data set [1] was 46%.

Take `CC(C)=CCC/C(C)=C/COC(Cn1cncn1)c1ccc(Br)cc1` (centres unmarked) [Compound 7, 1-[2-(4-bromophenyl)-2-((E)-3,7-dimethylocta-2,6-dienyloxy)ethyl]-1H-triazole]: the MIC against Candida sp. and against Trichophyton sp. was over 80 µg/mL throughout.
